Reference: patent US20240217961A1 (MONOPTEROS THERAPEUTICS, INC., priority 2021, published 2024)
≈ marks a conversion by molar mass, not a printed value. Like-named read-outs stand apart in the source and are kept apart here.

How the values were obtained:
[1] = Approximate solubility of free form in solvents at 25° C. (manual dilution, visual observation); format: physicochemical; conditions: thermodynamic from solid, read-out: Solubility (mg/mL) at 25° C.
Experimental: The experiment was conducted by manual dilution combined with visual observation at 25° C. The total volumes of solvents added were recorded.

CYP1A2 = molecular target: T1, CYP1A2 (Homo sapiens, UniProt P05177); experiment: CYP phenotyping, recombinant CYP enzyme incubation; format: in vitro ADME
T1 sequence (P05177 1-516): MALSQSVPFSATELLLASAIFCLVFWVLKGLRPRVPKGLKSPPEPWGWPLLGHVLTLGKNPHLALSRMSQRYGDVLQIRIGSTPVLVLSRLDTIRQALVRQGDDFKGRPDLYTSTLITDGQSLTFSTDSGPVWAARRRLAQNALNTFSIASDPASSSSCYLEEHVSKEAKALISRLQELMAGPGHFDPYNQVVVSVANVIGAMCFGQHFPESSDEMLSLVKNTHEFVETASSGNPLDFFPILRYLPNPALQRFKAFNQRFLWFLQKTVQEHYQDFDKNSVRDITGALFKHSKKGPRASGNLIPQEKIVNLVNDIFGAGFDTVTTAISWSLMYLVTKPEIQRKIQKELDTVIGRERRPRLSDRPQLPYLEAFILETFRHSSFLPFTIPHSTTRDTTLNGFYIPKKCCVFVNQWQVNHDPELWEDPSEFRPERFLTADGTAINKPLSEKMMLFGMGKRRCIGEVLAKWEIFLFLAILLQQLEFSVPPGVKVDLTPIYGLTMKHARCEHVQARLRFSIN
Experimental: These incubations were carried out at a concentration of 1 µM and contained 50 pmol/ml of CYP protein. Samples were taken at 0, 5, 10, 15, 20 and 30 minutes. The CLint and t1/2 were calculated from the data.

human liver microsomes = experiment: CYP phenotyping, human liver microsomes with or without specific chemical inhibitors; format: in vitro ADME; conditions: for Inhibition % / % Remaining at 60 min: human liver microsomes; for % Remaining at 60 min: mean ± SD, n = 3
Experimental: Human liver microsomes with or without specific inhibitors: By using human liver microsomes with chemical inhibitor, compared to without chemical inhibitor, the incubation was carried out at a concentration of 1 µM with samples taken 0, 15, 30, 45 and 60 min, and analyzed by UPLC-MS/MS to quantitate the concentration of parent remaining. The % remaining was calculated.

In the case of `CN1CCC[C@H](CN2c3ccccc3Sc3ccccc32)C1` [(S)-mepazine, (S)-10-((1-methylpiperidin-3-yl)methyl)-10H-phenothiazine], the solubility ([1]; 1,4-dioxane, organic solvent or mixture) is reported as > 100 mg/mL, the solubility ([1]; 2-propanol, organic solvent or mixture) is reported as 33.3 to 50 mg/mL (≈ 107 to 161 mM) and the solubility ([1]; DMF, organic solvent or mixture) is reported as > 100 mg/mL. The solubility ([1]; acetone, organic solvent or mixture) was > 100 mg/mL, the solubility ([1]; acetonitrile, organic solvent or mixture) was 25 to 33.3 mg/mL (≈ 80.5 to 107 mM) and the solubility ([1]; dichloromethane, organic solvent or mixture) was > 100 mg/mL. For the same compound, the solubility ([1]; ethanol, organic solvent or mixture) was > 100 mg/mL, the solubility ([1]; ethyl acetate, organic solvent or mixture) was 50 to 100 mg/mL (≈ 161 to 322 mM) and the solubility ([1]; heptane, organic solvent or mixture) was 10 to 14.3 mg/mL (≈ 32.2 to 46.1 mM). For the same compound, the solubility ([1]; isopropyl acetate, organic solvent or mixture) was 50 to 100 mg/mL (≈ 161 to 322 mM), the solubility ([1]; methanol, organic solvent or mixture) was > 100 mg/mL and the solubility ([1]; methyl ethyl ketone, organic solvent or mixture) was > 100 mg/mL. The solubility ([1]; t-butyl methyl ether, organic solvent or mixture) was 25 to 33.3 mg/mL (≈ 80.5 to 107 mM), the solubility ([1]; tetrahydrofuran, organic solvent or mixture) was > 100 mg/mL and the solubility ([1]; toluene, organic solvent or mixture) was > 100 mg/mL. The solubility ([1]; water) was < 2 mg/mL, the Contribution % (CYP1A2; CYP1A2) was 9.61% and the contribution % (CYP1A2; CYP1A2) was 9.61%. For the same compound, the half-life at 1 µM (CYP1A2; human, recombinant CYP1A2, 1 µM, 50 pmol/ml of CYP protein, mean ± SD, n = 3) was 51.5 ± 5.99 min, the CLint (CYP1A2; recombinant CYP1A2, 1 µM, 50 pmol/ml of CYP protein, mean ± SD, n = 3) was 0.272 ± 0.0339 μL/min/pmol CYP and the CLint (CYP1A2; recombinant CYP1A2, 1 µM, 50 pmol/ml CYP protein) was 0.272 µL/min/pmol. The “inhibition % of (S)-mepazine metabolism” value (human liver microsomes; human liver microsomes with inhibitor of CYP2C8) was < 20%, the Inhibition % (human liver microsomes; CYP1A2 (Furafylline)) was 31.6% and the “% Remaining at 60 min” value (human liver microsomes; CYP1A2 (Furafylline)) was 55.3 ± 4.07%. For the same compound, the Inhibition % (human liver microsomes; CYP2A6 (Tranylcypromine)) was 25.6%, the “% Remaining at 60 min” value (human liver microsomes; CYP2A6 (Tranylcypromine)) was 53.4 ± 2.69% and the Inhibition % (human liver microsomes; CYP2B6 (Ticlopidine)) was 22.8%. The “% Remaining at 60 min” value (human liver microsomes; CYP2B6 (Ticlopidine)) was 52.6 ± 3.79%, the Inhibition % (human liver microsomes; CYP2C8 (Montelukast)) was 19.3% and the “% Remaining at 60 min” value (human liver microsomes; CYP2C8 (Montelukast)) was 50.5 ± 4.24%. For the same compound, the Inhibition % (human liver microsomes; CYP2C9 (Sulfaphenazole)) was 33.9%, the “% Remaining at 60 min” value (human liver microsomes; CYP2C9 (Sulfaphenazole)) was 57.4± 2.68% and the Inhibition % (human liver microsomes; CYP2C19 (N-3-benzylnirvanol)) was 24.3%. For the same compound, the “% Remaining at 60 min” value (human liver microsomes; CYP2C19 (N-3-benzylnirvanol)) was 53.1 ± 1.75%, the Inhibition % (human liver microsomes; CYP2D6 (Quinidine)) was 74.4% and the “% Remaining at 60 min” value (human liver microsomes; CYP2D6 (Quinidine)) was 80.9 ± 3.69%. The Inhibition % (human liver microsomes; CYP3A (Ketoconazole)) was 21.4%, the “% Remaining at 60 min” value (human liver microsomes; CYP3A (Ketoconazole)) was 50.2 ± 4.00% and the Inhibition % (human liver microsomes; Without inhibitor) was 0.00%. For the same compound, the “% Remaining at 60 min” value (human liver microsomes; Without inhibitor) was 44.7 ± 2.57%.
